In ChEMBL document CHEMBL1201862, “PubChem BioAssay data set” (2004):
Active and inactive are the calls of the source. No stated cut-off is given here; in the data, actives have a measured IC50 and inactives only a lower limit.

Target: Envelope glycoprotein gp160 (Human immunodeficiency virus 1, UniProt Q6QLK5)
Assay: inhibitors of HIV fusion peptide binding, primary screen, biochemical, uHTS, fluorescence dequenching (AID 1986)

Sequence of Envelope glycoprotein gp160 (Q6QLK5 whole entry, the tested form may be a part): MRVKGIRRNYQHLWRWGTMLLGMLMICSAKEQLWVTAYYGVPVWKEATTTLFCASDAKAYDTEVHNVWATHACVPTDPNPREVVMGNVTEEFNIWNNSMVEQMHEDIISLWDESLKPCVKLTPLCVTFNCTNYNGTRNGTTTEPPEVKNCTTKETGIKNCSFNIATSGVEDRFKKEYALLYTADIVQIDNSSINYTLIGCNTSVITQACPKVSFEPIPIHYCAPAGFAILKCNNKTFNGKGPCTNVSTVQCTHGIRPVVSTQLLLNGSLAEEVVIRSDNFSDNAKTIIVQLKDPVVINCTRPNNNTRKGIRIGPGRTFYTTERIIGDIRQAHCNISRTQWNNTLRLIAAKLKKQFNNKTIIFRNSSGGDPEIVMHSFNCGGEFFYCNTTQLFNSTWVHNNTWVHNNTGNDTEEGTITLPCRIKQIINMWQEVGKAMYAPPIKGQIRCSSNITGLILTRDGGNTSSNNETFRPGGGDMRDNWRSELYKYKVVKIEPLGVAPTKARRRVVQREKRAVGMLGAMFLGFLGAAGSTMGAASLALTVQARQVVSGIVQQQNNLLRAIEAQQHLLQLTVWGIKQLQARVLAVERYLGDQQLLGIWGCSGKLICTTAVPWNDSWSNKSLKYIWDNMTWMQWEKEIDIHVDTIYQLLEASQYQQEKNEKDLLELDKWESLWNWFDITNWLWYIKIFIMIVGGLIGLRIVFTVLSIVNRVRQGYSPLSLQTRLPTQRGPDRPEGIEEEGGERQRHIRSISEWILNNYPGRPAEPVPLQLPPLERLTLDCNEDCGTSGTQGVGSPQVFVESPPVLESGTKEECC

O=C(O)c1[nH]c2ccccc2c1C(c1cc(Br)ccc1O)c1c(C(=O)O)[nH]c2ccccc12
IC50: 4.11 µM (active)

COc1cc(/C=N/Nc2ccc(Cl)c(C(=O)O)c2)ccc1OC(=O)c1ccc(F)cc1
IC50: 26.8 µM (active)
